Reference: patent US12258327B2, “5-membered heteroaryl-containing aminopyridine compounds as EGFR inhibitors” (YUHAN CORPORATION, priority 2021, dated 2025)
Read-outs that look alike come from different tables or passages of the source.

Columns and labels:
EGFR wildtype (WT) = EGFR wildtype (WT) (Homo sapiens, UniProt P00533); assay: Biochemical EGFR kinase assay (Lance Ultra TR-FRET), wildtype
In short: (§1)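 Kinase activity is measured by TR-FRET phosphopeptide detection. Compounds span 0.003 μM to 10 μM; the 1 h reaction at room temperature is quenched with EDTA, then labelled antibody (2 nM) is incubated 60 min before reading.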

EGFR L858R/C797S = EGFR L858R/C797S (Homo sapiens, UniProt P00533, C797S/L858R); assay: Biochemical EGFR kinase assay (Lance Ultra TR-FRET), double mutant L858R/C797S
Sequence of EGFR L858R/C797S (P00533 25-1210 C797S/L858R): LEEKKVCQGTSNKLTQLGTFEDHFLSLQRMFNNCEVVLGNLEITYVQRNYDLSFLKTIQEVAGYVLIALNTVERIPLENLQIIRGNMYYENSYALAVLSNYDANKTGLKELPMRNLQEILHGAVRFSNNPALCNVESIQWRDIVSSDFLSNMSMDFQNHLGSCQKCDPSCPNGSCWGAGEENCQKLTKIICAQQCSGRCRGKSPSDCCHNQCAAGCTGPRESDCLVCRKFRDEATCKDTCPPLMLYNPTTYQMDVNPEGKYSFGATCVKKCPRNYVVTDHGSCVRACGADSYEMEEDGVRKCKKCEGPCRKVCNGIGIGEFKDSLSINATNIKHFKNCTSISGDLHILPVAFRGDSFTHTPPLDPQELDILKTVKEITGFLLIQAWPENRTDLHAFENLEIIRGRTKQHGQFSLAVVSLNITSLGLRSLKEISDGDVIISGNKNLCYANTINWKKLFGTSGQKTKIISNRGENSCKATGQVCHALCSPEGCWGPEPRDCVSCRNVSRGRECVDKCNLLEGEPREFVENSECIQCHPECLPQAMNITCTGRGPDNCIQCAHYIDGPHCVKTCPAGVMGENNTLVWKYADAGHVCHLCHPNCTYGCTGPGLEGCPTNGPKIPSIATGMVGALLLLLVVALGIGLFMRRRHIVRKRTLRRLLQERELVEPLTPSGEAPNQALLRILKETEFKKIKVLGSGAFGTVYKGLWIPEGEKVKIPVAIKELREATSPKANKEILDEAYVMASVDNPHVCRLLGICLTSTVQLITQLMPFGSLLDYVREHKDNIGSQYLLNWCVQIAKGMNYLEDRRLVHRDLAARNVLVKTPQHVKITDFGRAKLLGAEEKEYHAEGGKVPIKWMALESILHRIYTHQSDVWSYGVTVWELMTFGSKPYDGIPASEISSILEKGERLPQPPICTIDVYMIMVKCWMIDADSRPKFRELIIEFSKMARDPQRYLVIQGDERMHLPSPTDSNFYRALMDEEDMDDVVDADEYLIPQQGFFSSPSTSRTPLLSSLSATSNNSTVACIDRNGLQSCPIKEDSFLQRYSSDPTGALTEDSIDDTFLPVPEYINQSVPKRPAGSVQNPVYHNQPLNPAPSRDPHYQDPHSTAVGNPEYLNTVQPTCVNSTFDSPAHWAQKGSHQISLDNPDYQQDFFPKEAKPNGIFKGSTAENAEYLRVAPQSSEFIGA
In short: as §1

EGFR L858R/T790M/C797S = EGFR L858R/T790M/C797S (Homo sapiens, UniProt P00533, C797S/L858R/T790M); assay: Biochemical EGFR kinase assay (Lance Ultra TR-FRET), triple mutant L858R/T790M/C797S
In short: as §1

EGFR del19/C797S = EGFR del19/C797S (Homo sapiens, UniProt P00533, C797S/DEL746-750); assay: Biochemical EGFR kinase assay (Lance Ultra TR-FRET), double mutant del19/C797S
Sequence of EGFR del19/C797S (P00533 with tags, fused parts or gaps DEL746-750/C797S): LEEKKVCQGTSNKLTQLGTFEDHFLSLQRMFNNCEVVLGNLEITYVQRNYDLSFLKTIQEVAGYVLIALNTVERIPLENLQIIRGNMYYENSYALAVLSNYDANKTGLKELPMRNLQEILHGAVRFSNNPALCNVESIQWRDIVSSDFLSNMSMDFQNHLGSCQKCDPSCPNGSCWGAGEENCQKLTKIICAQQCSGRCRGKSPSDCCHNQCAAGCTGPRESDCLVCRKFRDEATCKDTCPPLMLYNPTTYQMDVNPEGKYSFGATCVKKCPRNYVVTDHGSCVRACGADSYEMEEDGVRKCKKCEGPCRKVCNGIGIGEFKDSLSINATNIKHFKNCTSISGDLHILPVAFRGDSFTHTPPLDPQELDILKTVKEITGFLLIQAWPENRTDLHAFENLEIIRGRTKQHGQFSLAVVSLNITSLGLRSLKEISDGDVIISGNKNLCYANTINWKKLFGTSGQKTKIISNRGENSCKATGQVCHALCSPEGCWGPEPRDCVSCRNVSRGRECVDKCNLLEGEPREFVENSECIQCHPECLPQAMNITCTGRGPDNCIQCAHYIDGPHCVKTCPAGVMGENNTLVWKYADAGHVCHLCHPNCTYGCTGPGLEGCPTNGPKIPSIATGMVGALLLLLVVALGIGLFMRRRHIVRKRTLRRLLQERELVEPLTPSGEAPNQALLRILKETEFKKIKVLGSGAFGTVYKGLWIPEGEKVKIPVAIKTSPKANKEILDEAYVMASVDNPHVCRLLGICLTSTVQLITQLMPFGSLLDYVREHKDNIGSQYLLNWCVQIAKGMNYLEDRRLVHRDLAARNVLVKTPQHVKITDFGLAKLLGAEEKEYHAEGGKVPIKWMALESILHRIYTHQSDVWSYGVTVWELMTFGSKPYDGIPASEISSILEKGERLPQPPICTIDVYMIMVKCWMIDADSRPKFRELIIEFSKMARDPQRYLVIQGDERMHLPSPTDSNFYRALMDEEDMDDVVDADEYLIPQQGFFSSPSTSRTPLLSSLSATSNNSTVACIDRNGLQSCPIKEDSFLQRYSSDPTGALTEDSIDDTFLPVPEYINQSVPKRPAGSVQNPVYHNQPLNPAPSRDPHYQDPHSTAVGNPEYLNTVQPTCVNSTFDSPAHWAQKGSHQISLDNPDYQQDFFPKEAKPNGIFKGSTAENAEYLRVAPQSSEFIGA
In short: as §1

EGFR del19/T790M/C797S = EGFR del19/T790M/C797S (Homo sapiens, UniProt P00533, C797S/DEL746-750/T790M); assay: Biochemical EGFR kinase assay (Lance Ultra TR-FRET), triple mutant del19/T790M/C797S
Sequence of EGFR del19/T790M/C797S (P00533 with tags, fused parts or gaps DEL746-750/T790M/C797S): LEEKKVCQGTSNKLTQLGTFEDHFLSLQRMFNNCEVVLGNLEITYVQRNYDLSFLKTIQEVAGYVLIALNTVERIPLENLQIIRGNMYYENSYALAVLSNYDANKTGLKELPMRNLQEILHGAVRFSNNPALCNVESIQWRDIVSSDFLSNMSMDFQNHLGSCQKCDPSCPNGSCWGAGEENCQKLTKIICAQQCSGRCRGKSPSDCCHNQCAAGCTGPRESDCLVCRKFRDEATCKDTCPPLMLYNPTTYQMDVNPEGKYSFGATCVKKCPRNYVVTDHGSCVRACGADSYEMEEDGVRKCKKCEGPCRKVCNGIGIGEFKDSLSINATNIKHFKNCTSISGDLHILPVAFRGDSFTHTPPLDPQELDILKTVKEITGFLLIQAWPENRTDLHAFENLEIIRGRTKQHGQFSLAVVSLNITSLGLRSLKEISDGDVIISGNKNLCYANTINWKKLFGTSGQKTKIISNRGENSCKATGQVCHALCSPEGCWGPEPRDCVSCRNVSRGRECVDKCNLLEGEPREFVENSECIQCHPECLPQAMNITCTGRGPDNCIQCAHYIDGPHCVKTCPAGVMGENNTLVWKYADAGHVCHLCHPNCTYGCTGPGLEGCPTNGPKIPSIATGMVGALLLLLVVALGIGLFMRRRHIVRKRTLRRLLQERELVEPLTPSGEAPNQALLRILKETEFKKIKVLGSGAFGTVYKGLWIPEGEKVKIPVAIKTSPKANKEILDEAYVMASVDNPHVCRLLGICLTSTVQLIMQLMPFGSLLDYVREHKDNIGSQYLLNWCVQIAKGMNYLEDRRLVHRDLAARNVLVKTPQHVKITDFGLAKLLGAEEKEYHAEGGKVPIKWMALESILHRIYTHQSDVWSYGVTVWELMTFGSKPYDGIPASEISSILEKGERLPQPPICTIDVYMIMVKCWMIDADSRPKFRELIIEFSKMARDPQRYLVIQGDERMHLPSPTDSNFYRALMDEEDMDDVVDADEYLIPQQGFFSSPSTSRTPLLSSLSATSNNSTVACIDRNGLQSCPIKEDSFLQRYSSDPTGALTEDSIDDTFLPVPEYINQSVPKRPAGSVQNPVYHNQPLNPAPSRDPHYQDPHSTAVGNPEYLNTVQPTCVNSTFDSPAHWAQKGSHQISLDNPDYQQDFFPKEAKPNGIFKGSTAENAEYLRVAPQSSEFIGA
In short: as §1

[1] = IC50 WT (nM) 100 μM ATP, 100 μM ATP
[2] = Km ATP, read-out: IC50 WT (nM) Km ATP
[3] = IC50 L858R/C797S (nM) 100 μM ATP, 100 μM ATP
[4] = Km ATP, read-out: IC50 L858R/C797S (nM) Km ATP
[5] = IC50 L858R/T790M/C797S (nM) 100 μM ATP, 100 μM ATP
[6] = Km ATP, read-out: IC50 L858R/T790M/C797S (nM) Km ATP
[7] = IC50 del19/C797S (nM) 100 μM ATP, 100 μM ATP
[8] = Km ATP, read-out: IC50 del19/C797S (nM) Km ATP
[9] = IC50 del19/T790M/C797S (nM) 100 μM ATP, 100 μM ATP
[10] = Km ATP, read-out: IC50 del19/T790M/C797S (nM) Km ATP
[11] = Km ATP, read-out: IC50 WT, Km ATP
[12] = Km ATP, read-out: IC50 L858R/C797S, Km ATP
[13] = Km ATP, read-out: IC50 L858R/T790M/C797S, Km ATP
[14] = Km ATP, read-out: IC50 del19/C797S, Km ATP
[15] = Km ATP, read-out: IC50 del19/T790M/C797S, Km ATP
[16] = IC50 L858R/T790M/C797S, 100 μM ATP
[17] = IC50 del19/T790M/C797S, 100 μM ATP

Sequence of EGFR wildtype (WT) (P00533 25-1210): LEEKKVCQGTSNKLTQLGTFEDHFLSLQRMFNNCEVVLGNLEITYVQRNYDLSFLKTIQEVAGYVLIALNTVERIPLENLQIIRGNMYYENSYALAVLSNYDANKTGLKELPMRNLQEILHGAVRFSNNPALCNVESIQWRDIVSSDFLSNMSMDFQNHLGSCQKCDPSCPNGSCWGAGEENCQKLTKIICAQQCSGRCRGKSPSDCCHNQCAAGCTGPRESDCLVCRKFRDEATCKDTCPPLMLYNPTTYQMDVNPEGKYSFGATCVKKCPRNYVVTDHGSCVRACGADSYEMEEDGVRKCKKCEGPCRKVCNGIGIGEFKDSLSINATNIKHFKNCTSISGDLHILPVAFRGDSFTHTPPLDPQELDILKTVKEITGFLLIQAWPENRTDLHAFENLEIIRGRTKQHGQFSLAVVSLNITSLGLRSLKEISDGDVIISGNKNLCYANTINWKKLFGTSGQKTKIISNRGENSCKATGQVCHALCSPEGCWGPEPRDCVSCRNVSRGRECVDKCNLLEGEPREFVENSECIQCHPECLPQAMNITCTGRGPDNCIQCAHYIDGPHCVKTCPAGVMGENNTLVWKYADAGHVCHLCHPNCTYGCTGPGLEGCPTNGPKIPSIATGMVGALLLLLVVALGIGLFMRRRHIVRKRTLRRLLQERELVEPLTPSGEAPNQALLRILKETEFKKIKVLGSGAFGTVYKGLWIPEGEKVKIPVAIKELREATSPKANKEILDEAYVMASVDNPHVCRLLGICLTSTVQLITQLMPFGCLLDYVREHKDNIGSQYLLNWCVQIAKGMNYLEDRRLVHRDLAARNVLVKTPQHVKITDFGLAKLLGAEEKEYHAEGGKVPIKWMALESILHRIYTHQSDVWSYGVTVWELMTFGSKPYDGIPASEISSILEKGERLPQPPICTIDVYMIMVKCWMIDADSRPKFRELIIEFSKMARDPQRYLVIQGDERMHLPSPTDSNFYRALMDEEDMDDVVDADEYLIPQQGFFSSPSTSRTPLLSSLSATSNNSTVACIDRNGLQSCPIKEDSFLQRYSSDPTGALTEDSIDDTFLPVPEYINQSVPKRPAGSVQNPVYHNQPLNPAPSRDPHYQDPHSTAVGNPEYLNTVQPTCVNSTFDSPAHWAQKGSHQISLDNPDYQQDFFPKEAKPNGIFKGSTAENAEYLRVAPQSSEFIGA

SMILES | IC50 (EGFR wildtype (WT); [1]) [nM] | IC50 (EGFR wildtype (WT); [2]) [nM] | IC50 (EGFR L858R/C797S; [3]) [nM] | IC50 (EGFR L858R/C797S; [4]) [nM] | IC50 (EGFR L858R/T790M/C797S; [5]) [nM] | IC50 (EGFR L858R/T790M/C797S; [6]) [nM] | IC50 (EGFR del19/C797S; [7]) [nM] | IC50 (EGFR del19/C797S; [8]) [nM] | IC50 (EGFR del19/T790M/C797S; [9]) [nM] | IC50 (EGFR del19/T790M/C797S; [10]) [nM] | IC50 (EGFR wildtype (WT); [11]) [nM] | IC50 (EGFR L858R/C797S; [12]) [nM] | IC50 (EGFR L858R/T790M/C797S; [13]) [nM] | IC50 (EGFR del19/C797S; [14]) [nM] | IC50 (EGFR del19/T790M/C797S; [15]) [nM] | IC50 (EGFR wildtype (WT); IC50 WT, 100 μM ATP) [nM] | IC50 (EGFR L858R/C797S; IC50 L858R/C797S, 100 μM ATP) [nM] | IC50 (EGFR L858R/T790M/C797S; [16]) [nM] | IC50 (EGFR del19/C797S; IC50 del19/C797S, 100 μM ATP) [nM] | IC50 (EGFR del19/T790M/C797S; [17]) [nM]
Cn1ccc(-c2cnc(Nc3ccnc(-c4cnn(S(=O)(=O)C5CC5)c4)n3)cc2NCC2(CO)COC2)n1 [Example 228, (3-(((2-((2-(1-(Cyclopropylsulfonyl)-1H-pyrazol-4-yl)pyrimidin-4-yl)amino)-5-(1-methyl-1H-pyrazol-3-yl)pyridin-4-yl)amino)methyl)oxetan-3-yl)methanol] | 2360 | 3.3 | 24.5 | 0.9 | 0.2 | 0.1 | 0.8 | 0.6 | 0.2 | 0.1 |  |  |  |  |  |  |  |  |  | 
CC(C)(O)[C@H]1CC[C@@H](Nc2cc(Nc3ccnc(-c4cnn(S(=O)(=O)C5CC5)c4)n3)ncc2-c2ccn(CCC(F)(F)F)n2)CC1 [Example 300, 2-((1s,4s)-4-((2-((2-(1-(Cyclopropylsulfonyl)-1H-pyrazol-4-yl)pyrimidin-4-yl)amino)-5-(1-(3,3,3-trifluoropropyl)-1H-pyrazol-3-yl)pyridin-4-yl)amino)cyclohexyl)propan-2-ol] |  | 44.8 |  | 0.5 |  | 0.8 |  | 32.6 |  | 1.3 |  |  |  |  |  |  |  |  |  | 
O=S(=O)(C1CC1)n1cc(-c2ncc(F)c(Nc3cc(N[C@H]4CC[C@@H](CCO)CC4)c(-c4ccn(CC(F)F)n4)cn3)n2)cn1 [Example 336, 2-((1s,4s)-4-((2-((2-(1-(Cyclopropylsulfonyl)-1H-pyrazol-4-yl)-5-fluoropyrimidin-4-yl)amino)-5-(1-(2,2-difluoroethyl)-1H-pyrazol-3-yl)pyridin-4-yl)amino)cyclohexyl)ethan-1-ol] |  |  |  |  |  |  |  |  |  |  | 2550 | 20.5 | 1.1 | 37.3 | 1 |  |  |  |  | 
Cc1nn(CC(F)(F)F)cc1-c1nccc(Nc2cc(N[C@H]3CC[C@@](C)(O)CC3)c(-c3cc(C(F)(F)F)n(C)n3)cn2)n1 [Example 332, (1s,4s)-1-Methyl-4-((2-((2-(3-methyl-1-(2,2,2-trifluoroethyl)-1H-pyrazol-4-yl)pyrimidin-4-yl)amino)-5-(1-methyl-5-(trifluoromethyl)-1H-pyrazol-3-yl)pyridin-4-yl)amino)cyclohexan-1-ol] |  |  |  |  |  |  |  |  |  |  | 98 | 6 | 3.2 | 10.1 | 5.9 |  |  |  |  | 
Cn1nc(-c2cnc(Nc3ccnc(-c4cnn(CC(F)(F)F)c4)n3)cc2N[C@H]2CC[C@@](C)(O)CC2)cc1C(F)(F)F [Example 329, (1s,4s)-1-Methyl-4-((5-(1-methyl-5-(trifluoromethyl)-1H-pyrazol-3-yl)-2-((2-(1-(2,2,2-trifluoroethyl)-1H-pyrazol-4-yl)pyrimidin-4-yl)amino)pyridin-4-yl)amino)cyclohexan-1-ol] | > 10000 | 288 | 1140 | 75 | 4.1 | 1.2 | 37.1 | 24.6 | 6.5 | 2.5 |  |  |  |  |  |  |  |  |  | 
C[C@]1(O)CC[C@@H](Nc2nc(Nc3ccnc(-c4cnn(CC(F)F)c4)c3)ncc2-c2ccn(C(F)F)n2)CC1 [Example 362, (1s,4s)-4-((2-((2-(1-(2,2-Difluoroethyl)-1H-pyrazol-4-yl)pyridin-4-yl)amino)-5-(1-(difluoromethyl)-1H-pyrazol-3-yl)pyrimidin-4-yl)amino)-1-methylcyclohexan-1-ol] |  |  |  |  |  |  |  |  |  |  | 159 | 5 | 0.1 | 12.8 | 0.2 |  |  |  |  | 
Cc1nn(CC(F)(F)F)cc1-c1nccc(Nc2cc(N[C@H]3CC[C@@](C)(O)CC3)c(-c3ccn(C(F)F)n3)cn2)n1 [Example 320, (1s,4s)-4-((5-(1-(Difluoromethyl)-1H-pyrazol-3-yl)-2-((2-(3-methyl-1-(2,2,2-trifluoroethyl)-1H-pyrazol-4-yl)pyrimidin-4-yl)amino)pyridin-4-yl)amino)-1-methylcyclohexan-1-ol] |  | 33.5 |  | 1.8 |  | 0.2 |  | 3.9 |  | 0.4 |  |  |  |  |  |  |  |  |  | 
CC1(O)CCC(Nc2cc(Nc3ccnc(N4CCC(O)C(F)(F)C4)n3)ncc2-c2ccn(C(F)F)n2)CC1 (stereo not shown) [Example 348, 1-(4-((5-(1-(Difluoromethyl)-1H-pyrazol-3-yl)-4-(((1s,4s)-4-hydroxy-4-methylcyclohexyl)amino)pyridin-2-yl)amino)pyrimidin-2-yl)-3,3-difluoropiperidin-4-ol] |  |  |  |  |  |  |  |  |  |  | 145 | 14.6 | 0.2 | 134 | 0.5 | > 10000 | 149 | 0.6 | 134 | 3.5
CNC[C@H]1CC[C@H](CNc2cc(Nc3ccnc(-c4cnn(S(=O)(=O)C5CC5)c4)n3)ncc2-c2ccn(C(F)F)n2)CC1 [Example 192, N^2-(2-(1-(Cyclopropylsulfonyl)-1H-pyrazol-4-yl)pyrimidin-4-yl)-5-(1-(difluoromethyl)-1H-pyrazol-3-yl)-N^4-(((1r,4r)-4-((methylamino)methyl)cyclohexyl)methyl)pyridine-2,4-diamine] | 384 | 1.1 | 3.7 | 0.4 | 0.2 | 0.1 | 0.7 | 0.3 | 0.4 | 0.2 |  |  |  |  |  |  |  |  |  | 
OCC[C@H]1CC[C@@H](Nc2cc(Nc3ccnc(-c4cnn(CC(F)F)c4)n3)ncc2-c2ccn(CC(F)(F)F)n2)CC1 [Example 338, 2-((1s,4s)-4-((2-((2-(1-(2,2-Difluoroethyl)-1H-pyrazol-4-yl)pyrimidin-4-yl)amino)-5-(1-(2,2,2-trifluoroethyl)-1H-pyrazol-3-yl)pyridin-4-yl)amino)cyclohexyl)ethan-1-ol] |  |  |  |  |  |  |  |  |  |  | 45.1 | 3.9 | 0.4 | 13.2 | 0.7 |  |  |  |  | 
C[C@]1(O)CC[C@@H](Nc2cc(Nc3ccnc(-c4cnn(S(=O)(=O)C5CC5)c4)n3)ncc2-n2cccn2)CC1 [Example 376, (1s,4s)-4-((2-((2-(1-(Cyclopropylsulfonyl)-1H-pyrazol-4-yl)pyrimidin-4-yl)amino)-5-(1H-pyrazol-1-yl)pyridin-4-yl)amino)-1-methylcyclohexan-1-ol] |  |  |  |  |  |  |  |  |  |  | 144 | 11 | 0.1 | 6 | 0.2 | > 10000 | 126 | 0.9 | 8 | 0.4
C[C@]1(O)CC[C@@H](Nc2cc(Nc3ccnc(-c4cnn(S(=O)(=O)N5CCCC5)c4)n3)ncc2-c2ccn(C(F)F)n2)CC1 [Example 323, (1s,4s)-4-((5-(1-(Difluoromethyl)-1H-pyrazol-3-yl)-2-((2-(1-(pyrrolidin-1-ylsulfonyl)-1H-pyrazol-4-yl)pyrimidin-4-yl)amino)pyridin-4-yl)amino)-1-methylcyclohexan-1-ol] |  | 466 |  | 143 |  | 4.6 |  | 1060 |  | 10.4 |  |  |  |  |  |  |  |  |  | 
O=S(=O)(C1CC1)n1cc(-c2nccc(Nc3cc(N[C@H]4CC[C@@H](O)CC4)c(-c4cnn(C(F)F)c4)cn3)n2)cn1 [Example 77, (1s,4s)-4-((2-((2-(1-(Cyclopropylsulfonyl)-1H-pyrazol-4-yl)pyrimidin-4-yl)amino)-5-(1-(difluoromethyl)-1H-pyrazol-4-yl)pyridin-4-yl)amino)cyclohexan-1-ol] | > 10000 |  | 479 |  | 11.4 |  | 80.8 |  | 8.8 |  |  |  |  |  |  |  |  |  |  | 
CN(C)C[C@H]1CC[C@@H](Nc2cc(Nc3ccnc(-c4cnn(S(=O)(=O)C5CC5)c4)n3)ncc2-c2ccn(C(F)F)n2)CC1 [Example 195, N^2-(2-(1-(Cyclopropylsulfonyl)-1H-pyrazol-4-yl)pyrimidin-4-yl)-5-(1-(difluoromethyl)-1H-pyrazol-3-yl)-N^4-((1s,4s)-4-((dimethylamino)methyl)cyclohexyl)pyridine-2,4-diamine] | 145 | 0.3 | 0.8 | 0.1 | 0.1 | 0.04 | 0.3 | 0.2 | 0.1 | 0.1 |  |  |  |  |  |  |  |  |  | 
